These results are taken from patent publication US20050234652A1, “Nuclear magnetic resonance-docking of compounds” (Triad Therapeutics, Inc., priority 2001, published 2005).

SMILES strings stand for the structures.

This test addresses T1, DHPR (Escherichia coli, UniProt P04036).
T1 construct: made in house; host or cells: E. coli BL21 (DE3) Gold
Put plainly: binding of ligands to DHPR (dissociation constants). Details: species or system E. coli. From the text:
The resonance assignments for DHPR residues Thr80, Thr104 and Met17 were obtained as follows. Differential chemical shift perturbation was observed by comparing the spectra of MIT-DHPR bound to 2,6-pyridinedicarboxylate (PDC) and the spectra of MIT-DHPR bound to 4-Cl PDC. Distinct changes in chemical shift for only one of the methionine ^13C^ε/^1H^ε resonances was detected, which therefore identified the signals as being associated with M17 as shown in FIG. 1D. Both PDC and 4-Cl PDC bound to DHPR with micromolar dissociation constants, so that, at the concentrations used, the protein was saturated in both samples. Therefore, the resultant chemical shift differences originate solely from the small perturbation introduced by binding slightly different ligands. Similarly, resonance assignments were obtained for residues T104 and […] with differential chemical shifts comparing spectra obtained for complexes formed with NADH and 3-acetyl pyridine NADH.

T1 sequence (P04036 whole entry): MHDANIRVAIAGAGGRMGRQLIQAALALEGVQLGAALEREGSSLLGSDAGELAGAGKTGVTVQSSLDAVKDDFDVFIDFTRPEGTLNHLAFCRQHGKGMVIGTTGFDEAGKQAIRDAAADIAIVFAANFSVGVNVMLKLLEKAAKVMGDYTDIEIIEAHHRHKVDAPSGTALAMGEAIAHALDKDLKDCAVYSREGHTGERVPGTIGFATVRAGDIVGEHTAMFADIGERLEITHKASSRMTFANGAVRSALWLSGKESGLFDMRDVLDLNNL

On to `O=C(O)c1cc(Cl)cc(C(=O)O)n1` [4-Cl PDC], for which the dissociation constants result was “micromolar”.

In the case of `O=C(O)c1cccc(C(=O)O)n1` [PDC, 2,6-pyridinedicarboxylate], the dissociation constants result is reported as “micromolar”.
